Converted amounts (≈) assume the structure as drawn. Read-outs that look alike come from different tables or passages of the source. Bridge positions count the residues as written; N and C are the ends. Square brackets hold non-standard residues; d marks the D form. Peptide text beside a SMILES is read from it. Dab = NCC[C@H](N)C(=O)O
Assays:
[1] = system: P. aeruginosa PA2; experiment: MIC, micro-dilution method; type: cell-based; conditions: Pseudomonas aeruginosa
Procedure: (§1) The MICs (minimal inhibitory concentrations) were determined for different P. aeruginosa strains using micro-dilution method, with a concentration of 1 × 10^5 CFU/mL on LB broth for 24 h, according to the published procedures. The experiment was carried out in three repeats.

[2] = system: P. aeruginosa PAB41; experiment: MIC, micro-dilution method; type: cell-based; conditions: Pseudomonas aeruginosa
Procedure: as §1

[3] = system: P. aeruginosa PA14; experiment: MIC, micro-dilution method; type: cell-based; conditions: Pseudomonas aeruginosa
Procedure: as §1

[4] = system: P. aeruginosa ATCC27853; experiment: MIC, micro-dilution method; type: cell-based; conditions: Pseudomonas aeruginosa
Procedure: as §1

[5] = system: P. aeruginosa PA14; type: cell-based, Pseudomonas aeruginosa
Procedure: Synergistic effect of the 6 polymyxin B or polymyxin E derivatives in combination with 5 conventional antibacterial agents was detected using the checkerboard method as described on the previous study. Briefly, the serial concentrations of test compounds were prepared by a two-dimensional array. The tested dilutions were based on the MICs of the two different compounds. The fractional inhibitory concentration index (FIC) was applied to illuminate the checkerboard test based on formulas as follows: FIC Index = […] = MICA+B/MICA, and FICB = MICB+A/MICB. The value of MICA+B is indicated as the MIC value of Compound A with Compound B, and equally for MICB+A. […] The experiments were repeated in triplicate.

[6] = system: all tested P. aeruginosa strains; type: cell-based, Pseudomonas aeruginosa; conditions: 24 h
Procedure: as §1

[7] = system: PAB41; experiment: Time-kill assay, bacterial burdens in vitro; type: cell-based, Pseudomonas aeruginosa; conditions: PAB41, 1 × 10^5 CFU in 96-well plates; 1 h, 6 h, 12 h, 24 h; LP compared to single-treated groups
Procedure: (§2) To explore the antibacterial activity of LP combination in the P. aeruginosa in vitro, PA14 were cultured in 96-well plates and were treated with PBS, linezolid, PBOP or LP for 1 h, 6 h, 12 h, and 24 h.
(§3) A1–A4 1 × 10^5 CFU of PA14 were seeded in 96-well plates and treated with PBS, linezolid, PBOP or combination of linezolid and PBOP (LP) for 1 h (A1), 6 h (A2), 12 h (A3), and 24 h (A4). The bacteria burdens on the LB agar plates were counted. B1–B4 1 × 10^5 CFU of PA2 were seeded in 96-well plates and treated with PBS, linezolid, PBOP or LP for 1 h (B1), 6 h (B2), 12 h (B3), and 24 h (B4). C1–C4 1 × 10^5 CFU of PAB41 were seeded in 96-well plates and treated with PBS, linezolid, PBOP or LP for 1 h (C1), 6 h (C2), 12 h (C3), and 24 h (C4). The bacteria burdens were determined as described above.

[8] = system: PA2; experiment: Time-kill assay, bacterial burdens in vitro; type: cell-based, Pseudomonas aeruginosa; conditions: PA2, 1 × 10^5 CFU in 96-well plates; 1 h, 6 h, 12 h, 24 h; LP compared to single-treated groups
Procedure: as §2, §3

[9] = system: C. elegans infected with PA14; experiment: C. elegans infection model; type: in vivo, Caenorhabditis elegans; conditions: PA14 infection on SK plate, linezolid 8 μg/mL, PBOP 16 μg/mL; for bacterial loads inside C. elegans: 12 h and 24 h post infection; for survival of infected C. elegans: monitored 7 days
Procedure: To determine the protective effect of LP, all groups of C. elegans were infected with PA14 in slow killing (SK) agar plate and were treated with PBS, linezolid (8 μg/mL), PBOP (16 μg/mL) or LP. The mortality of the infected C. elegans was evaluated for 7 days. […] The bacterial loads inside the C. elegans were counted at 12 h or 24 h post-infection as previously described. Briefly, the infected nematodes were mixed with silicon carbide particles and vortexed at maximum speed for one minute. The resulting suspension was serially diluted and plated on a selective agar plate to determine the bacterial CFU. This experiment was performed in triplicate.

[10] = P. aeruginosa PA2 (multidrug-resistant clinical strain), micro-dilution, 1 × 10^5 CFU/mL, LB broth, 24 h, three repeats, read-out: MIC
[11] = P. aeruginosa PAB41 (carbapenem-resistant clinical strain), micro-dilution, 1 × 10^5 CFU/mL, LB broth, 24 h, three repeats, read-out: MIC
[12] = P. aeruginosa PA14, micro-dilution, 1 × 10^5 CFU/mL, LB broth, 24 h, three repeats, read-out: MIC
[13] = P. aeruginosa ATCC27853, micro-dilution, 1 × 10^5 CFU/mL, LB broth, 24 h, three repeats, read-out: MIC

| SMILES | FIC (lowest FIC Index) combined with Erythromycin [5] | FIC (lowest FIC Index) combined with Lincomycin [5] | FIC (lowest FIC Index) combined with Linezolid [5] | FIC (lowest FIC Index) combined with Nisin [5] | FIC (lowest FIC Index) combined with Vancomycin [5] | MIC [6] | MIC [1, 10] [µg/mL] | MIC [2, 11] [µg/mL] | MIC [3, 12] [µg/mL] | MIC [4, 13] [µg/mL] | also measured |
| --- | --- | --- | --- | --- | --- | --- | --- | --- | --- | --- | --- |
| CN[C@H](CC(C)C)C(=O)N[C@H]1C(=O)N[C@@H](CC(N)=O)C(=O)N[C@H]2C(=O)N[C@H]3C(=O)N[C@H](C(=O)N[C@H](C(=O)O)c4cc(O)cc(O)c4-c4cc3ccc4O)[C@H](O)c3ccc(c(Cl)c3)Oc3cc2cc(c3O[C@@H]2O[C@H](CO)[C@@H](O)[C@H](O)[C@H]2O[C@H]2C[C@](C)(N)[C@H](O)[C@H](C)O2)Oc2ccc(cc2Cl)[C@H]1O [Vancomycin, vancomycin] |  |  |  |  |  |  |  |  |  |  | MIC ([1]; PA2, 24 h): > 256 µg/mL; MIC ([2]; PAB41, 24 h): > 256 µg/mL; MIC ([3]; PA14, 24 h): > 256 µg/mL; MIC ([4]; ATCC27853, 24 h): > 256 µg/mL |
| CC(C)C[C@@H]1NC(=O)[C@@H](CC(C)C)NC(=O)[C@H](CCN)NC(=O)[C@@H](NC(=O)[C@H](CCN)NC(=O)[C@@H](N)[C@@H](C)O)CCNC(=O)[C@H]([C@@H](C)O)NC(=O)[C@H](CCN)NC(=O)[C@H](CCN)NC1=O [PENP, polymyxin E nonapeptide] (H-T[Dab][Dab][Dab][dL]L[Dab][Dab]T; lactam 3-C (inferred); N-terminus assumed) | 0.281 | 0.125 | 0.281 | 0.375 | 0.188 | over 256 µg/mL |  |  |  |  |  |
| CC1COc2c(N3CCN(C)CC3)c(F)cc3c(=O)c(C(=O)O)cn1c23 (stereo not drawn) [Ofloxacin, ofloxacin] |  |  |  |  |  |  | 0.5 (≈ 1.38 µM) | 1 (≈ 2.77 µM) | 0.5 (≈ 1.38 µM) | 0.5 (≈ 1.38 µM) |  |
| CC(C)C[C@@H]1NC(=O)[C@@H](CC(C)C)NC(=O)[C@H](CCN)NC(=O)[C@@H](N)CCNC(=O)[C@H]([C@@H](C)O)NC(=O)[C@H](CCN)NC(=O)[C@H](CCN)NC1=O [PEHP, polymyxin E heptapeptide] (H-[Dab][Dab][dL]L[Dab][Dab]T; lactam 1-C (inferred); N-terminus assumed) | 0.258 | 0.250 | 0.141 | 0.266 | 0.156 | over 256 µg/mL |  |  |  |  |  |
| CN(C)c1cc(NC(=O)CNC(C)(C)C)c(O)c2c1C[C@H]1C[C@H]3[C@H](N(C)C)C(O)=C(C(N)=O)C(=O)[C@@]3(O)C(O)=C1C2=O [Tigecycline, tigecycline] |  |  |  |  |  |  | 4 (≈ 6.83 µM) | 2 (≈ 3.41 µM) | 2 (≈ 3.41 µM) | 4 (≈ 6.83 µM) |  |
| CC(=O)NC[C@H]1CN(c2ccc(N3CCOCC3)c(F)c2)C(=O)O1 [Linezolid, linezolid] |  |  |  |  |  |  | > 256 | > 256 | > 256 | > 256 | bacterial CFU / bactericidal activity [7]: no remarkably bactericidal activity; bacterial CFU / bactericidal activity [8]: no remarkably bactericidal activity; bacterial loads inside C. elegans [9]: a great number of bacteria were detected; survival of infected C. elegans [9]: died at day 3 |
| CC(C)C[C@@H]1NC(=O)[C@@H](CC(C)C)NC(=O)[C@H](CCN)NC(=O)[C@@H](NC(=O)[C@@H](N)CCN)CCNC(=O)[C@H]([C@@H](C)O)NC(=O)[C@H](CCN)NC(=O)[C@H](CCN)NC1=O [PEOP, polymyxin E octapeptide] (H-[Dab][Dab][Dab][dL]L[Dab][Dab]T; lactam 2-C (inferred); N-terminus assumed) | 0.313 | 0.141 | 0.188 | 0.313 | 0.125 | over 256 µg/mL |  |  |  |  |  |
| CC(C)C[C@@H]1NC(=O)[C@@H](Cc2ccccc2)NC(=O)[C@H](CCN)NC(=O)[C@@H](NC(=O)[C@@H](N)CCN)CCNC(=O)[C@H]([C@@H](C)O)NC(=O)[C@H](CCN)NC(=O)[C@H](CCN)NC1=O [PBOP, polymyxin B octapeptide] (H-[Dab][Dab][Dab][dF]L[Dab][Dab]T; lactam 2-C (inferred); N-terminus assumed) | 0.156 | 0.094 | 0.078 | 0.313 | 0.156 | over 256 µg/mL |  |  |  |  | bacterial CFU / bactericidal activity [7]: no remarkably bactericidal activity; bacterial CFU / bactericidal activity [8]: no remarkably bactericidal activity; bacterial loads inside C. elegans [9]: a great number of bacteria were detected; survival of infected C. elegans [9]: died at day 3 |
| CCC[C@@H]1C[C@@H](C(=O)N[C@@H]([C@H]2O[C@H](SC)[C@H](O)[C@@H](O)[C@H]2O)[C@@H](C)O)N(C)C1 [Lincomycin, lincomycin] |  |  |  |  |  |  | > 256 | > 256 | > 256 | > 256 |  |
| CC1(C)S[C@@H]2[C@H](NC(=O)[C@H](N)c3ccccc3)C(=O)N2[C@H]1C(=O)O [Ampicillin, ampicillin] |  |  |  |  |  |  |  | 8 (≈ 22.9 µM) |  | 4 (≈ 11.4 µM) |  |
| CC(C)C[C@@H]1NC(=O)[C@@H](Cc2ccccc2)NC(=O)[C@H](CCN)NC(=O)[C@@H](N)CCNC(=O)[C@H]([C@@H](C)O)NC(=O)[C@H](CCN)NC(=O)[C@H](CCN)NC1=O [PBHP, polymyxin B heptapeptide] (H-[Dab][Dab][dF]L[Dab][Dab]T; lactam 1-C (inferred); N-terminus assumed) | 0.281 | 0.188 | 0.141 | 0.375 | 0.141 | over 256 µg/mL |  |  |  |  |  |
| CC1(C)S[C@@H]2[C@H](NC(=O)Cc3ccccc3)C(=O)N2[C@H]1C(=O)O [Penicillin G, penicillin G] |  |  |  |  |  |  | 4 (≈ 12 µM) | 4 (≈ 12 µM) | 8 (≈ 23.9 µM) | 8 (≈ 23.9 µM) |  |
| CN(C)[C@@H]1C(O)=C(C(N)=O)C(=O)[C@@]2(O)C(O)=C3C(=O)c4c(O)ccc(Cl)c4[C@@](C)(O)[C@H]3C[C@@H]12 [Chlortetracycline, chlortetracycline] |  |  |  |  |  |  | 4 (≈ 8.35 µM) | 8 (≈ 16.7 µM) | 4 (≈ 8.35 µM) | 4 (≈ 8.35 µM) |  |
| CC[C@H]1OC(=O)[C@H](C)[C@@H](O[C@H]2C[C@@](C)(OC)[C@@H](O)[C@H](C)O2)[C@H](C)[C@@H](O[C@@H]2O[C@H](C)C[C@H](N(C)C)[C@H]2O)[C@](C)(O)C[C@@H](C)C(=O)[C@H](C)[C@@H](O)[C@]1(C)O [Erythromycin, erythromycin] |  |  |  |  |  |  | > 256 | > 256 | > 256 | > 256 |  |
| CC(C)C[C@@H]1NC(=O)[C@@H](Cc2ccccc2)NC(=O)[C@H](CCN)NC(=O)[C@@H](NC(=O)[C@H](CCN)NC(=O)[C@@H](N)[C@@H](C)O)CCNC(=O)[C@H]([C@@H](C)O)NC(=O)[C@H](CCN)NC(=O)[C@H](CCN)NC1=O [PBNP, polymyxin B nonapeptide] (H-T[Dab][Dab][Dab][dF]L[Dab][Dab]T; lactam 3-C (inferred); N-terminus assumed) | 0.188 | 0.156 | 0.156 | 0.250 | 0.250 | over 256 µg/mL |  |  |  |  |  |

Source: PMC9422153, “A novel antibiotic combination of linezolid and polymyxin B octapeptide PBOP against clinical Pseudomonas aeruginosa strains” (Annals of Clinical Microbiology and Antimicrobials, 2022)
